Measured values reported in EP0702551B1, “COMPOSITIONS AND METHODS FOR REPARATION AND PREVENTION OF FIBROTIC LESIONS” (MARGOLIN, Solomon B., priority 1993, dated 1994).
Where “and” joins values, the source holds several entries; their conditions need not be identical. Equal entries are not always repeated. Marks after values point to notes of the source that are not given here.

Tests used:
[1] = tested on: Fibrosis of the ventricular myocardium; assay: Clinical human open trial, fibrosis of the ventricular myocardium; format: in vivo
Method: (§1) Clinical human open trials have been undertaken as follows: • 1. Pulmonary fibrosis diagnosed as caused by asbestos was treated with pirfenidone and closely and objectively followed in two subjects. […] Pulmonary fibrosis diagnosed as idiopathic in nature was treated with pirfenidone and closely and objectively followed in one subject for over two years. […] Two subjects suffered from frequency, severe nocturia, incontinence, constant urgency, and in the third these symptoms were less severe. Clinically, all had enlarged prostates that explained the symptoms. The results were dramatic in the eldest subject within two weeks of therapy. Nocturia of 6-7 trips (every 60-90 minutes) per night was reduced to 1 or 2 nightly (4-5 hours apart). In the other two patients, nocturia 3-4 times (every 2-3 hours) was reduced to once nightly 4-5 hours after retiring. […] Inhibition of excessive scar formation by direct application of pirfenidone ointment to skin lesions in 10 cases.

[2] = tested on: Benign prostate hypertrophy; assay: Clinical human open trial, benign prostate hypertrophy; format: in vivo
Method: as §1

[3] = tested on: CYCLOPHOSPHAMIDE-INDUCED IN[…]; assay: Cyclophosphamide-induced interstitial fibrosis in mice; format: in vivo
From the text: In mice, pulmonary fibrosis induced with cyclophosphamide […] and is know to produce pulmonary fibrosis in patients as a side effect.

[4] = tested on: fibrosis (interstitial hyperplasia); assay: Histopathological examination of rat lungs for fibrosis after three months of drug in the diet; format: in vivo; details: rats; for Lung Connective Tissue Score, Mean: 300 mg/kg (p.o.) in the diet for three months, score 0, 1, 2, 3 = degree of fibrosis, control mean 1.63, 300 mg/kg
Method: The results of a histopathological examination of the lungs of rats for fibrosis (interstitial hyperplasia) after receiving 300mg/kg body weight of pirfenidone in the diet for three months are summarized in Table 2. The individual microscopic readings of the lung are also shown in Table 2, where a score schedule of 0, 1, 2, and 3 reflects the degree of fibrosis.
The data in Table 2 reveal a statistically significant reduction in the amount of fibrosis in rats receiving pirfenidone as compared to placebo control rats (Group 1). The mean score for the controls (Group 1) was 1.63 +/-0.23, and for Group IV (pirfenidone, 300mg/kg body weight daily was 0.95 +/-0.23.
Student's T value was 2.43, with P less than 0.02 (highly significant statistically).

[5] = tested on: PULMONARY INTERSTITIAL HYPERPLASIA (FIBROSIS); assay: Pulmonary interstitial hyperplasia (fibrosis) in dogs, oral capsules, microscopic scoring; format: in vivo, Beagle dogs; details: for Hyperplasia Scores 0 (number of dogs): 0 = normal tissue; for Hyperplasia Scores 1 (number of dogs): 1 = minimal; for Hyperplasia Scores 2 (number of dogs): 2 = moderate; for Hyperplasia Scores 3 (number of dogs): 3 = severe; for Incidence of Normal Lung: control 0/9
Method: The mean score for Group I (Control) was 2.11 +/-0.31, and for Group IV, which received pirfenidone, 150 mg/kg per day orally in capsules, was 0.22 +/-0.19.

[6] = tested on: ASBESTOS-INDUCED PULMONARY IN[…]; assay: Asbestos-induced pulmonary interstitial fibrosis in hamsters; format: in vivo
From the text: In hamsters, pulmonary fibrosis induced with crysotile asbestos was removed following oral pirfenidone (Table 4).
The novel role of pirfenidone in the therapeutic repair of fibrotic lung tissue featuring removal of fibrotic lesions, and concomitant regeneration of normal lung tissue has been observed in experimental asbestosis by histopathological examination of lung tissue specimens under the light microscope, and electron microscopy (Table 4).
This was subsequently confirmed by ashing of lung specimens in a laboratory oven, and then determining the asbestos content.

[7] = Acute toxicity (LD), cat; details: in vivo
From the text: The acute toxicity of the ingredient in the medical composition of the present invention which exerts the anti-fibrotic activity is as shown in the table below: […]

[8] = tested on: Pulmonary fibrosis; assay: Clinical human open trial, pulmonary fibrosis; format: in vivo
Method: as §1

[9] = GROUP II: cyclophosphamide 200 mg/kg i.p. plus 500 mg/kg/day p.o.
[10] = 300 mg/kg (p.o.), three months, 19 animals
[11] = group average, asbestos + 500 mg/kg/day in the diet two months, asbestos only 2.75+/-0.25
[12] = individual hamsters, asbestos + 500 mg/kg/day in the diet two months, 0 = normal tissue, 1 = minimal, 2 = moderate, 3 = severe, 500 mg/kg/day

With `Cc1ccc(=O)n(-c2ccccc2)c1` [pirfenidone, 5-methyl-1-phenyl-2-(1H) pyridone] the “fibrosis of the ventricular myocardium (electrocardiogram maps and nuclear resonance determinations)” value ([1]; one subject (diagnosed as terminal), after repeated coronary infarcts) was “objective evidence of the reduction of the fibrosis”, the “survival of the subject” value ([1]; one subject diagnosed as terminal, drug terminated after 18 months) was “additional three years” and the “digital examination of the prostate” value ([2]; all cases, in 3-4 weeks) was “detectable reduction in the size of the prostate”. For the same compound, the Nocturia after therapy ([2]; other two patients, before 3-4 times (every 2-3 hours)) was “once”, the clinical results ([2]; three elderly subjects (66-100 years)) was “very good to excellent” and the “Lung Dry Wt.” value [3, 9] was 52.4+/-0.9 Mg. For the same compound, the “Lung FIBROSIS Scores (N/N), incidence of scores 3.0 or less” value [3, 9] was 3/5, the “Lung FIBROSIS Scores” value ([3]; GROUP II: cyclophosphamide 200 mg/kg i.p. plus 500 mg/kg/day p.o., scoring 0 through 6) was 2.99+/-0.75 and the “pulmonary fibrosis induced with cyclophosphamide” value ([3]; mice, oral administration) was “removed”. For the same compound, the “Lung Connective Tissue Score, Mean” value [4] was 0.95 +/-0.23, the “Lung Connective Tissue Score, Mean” value ([4]; listed as PIRFENIDONE) was 0.95 and the “Lung Connective Tissue Score 0, Total (animals)” value [4, 10] was 5. For the same compound, the “Lung Connective Tissue Score 1, Total (animals)” value [4, 10] was 11, the “Lung Connective Tissue Score 2, Total (animals)” value [4, 10] was 2 and the “Lung Connective Tissue Score 3, Total (animals)” value [4, 10] was 1. For the same compound, the “Hyperplasia Scores 0 (number of dogs)” value ([5]; 25 mg/kg/day oral) was 1, the “Hyperplasia Scores 1 (number of dogs)” value ([5]; 25 mg/kg/day oral) was 1 and the “Hyperplasia Scores 2 (number of dogs)” value ([5]; 25 mg/kg/day oral) was 4. For the same compound, the “Hyperplasia Scores 3 (number of dogs)” value ([5]; 25 mg/kg/day oral) was 0, the “Incidence of Normal Lung” value ([5]; 25 mg/kg/day oral) was 1/6 and the “Average Scores” value ([5]; 25 mg/kg/day oral, hyperplasia score 0-3, control 2.11+/-0.31) was 1.50+/-0.34. The “Hyperplasia Scores 0 (number of dogs)” value ([5]; 75 mg/kg/day oral) was 2, the “Hyperplasia Scores 1 (number of dogs)” value ([5]; 75 mg/kg/day oral) was 2 and the “Hyperplasia Scores 2 (number of dogs)” value ([5]; 75 mg/kg/day oral) was 3. The “Hyperplasia Scores 3 (number of dogs)” value ([5]; 75 mg/kg/day oral) was 1, the “Incidence of Normal Lung” value ([5]; 75 mg/kg/day oral) was 2/8 and the “Average Scores” value ([5]; 75 mg/kg/day oral, hyperplasia score 0-3, control 2.11+/-0.31) was 1.38+/-0.38. For the same compound, the “Hyperplasia Scores 0 (number of dogs)” value ([5]; 150 mg/kg/day oral) was 7, the “Hyperplasia Scores 1 (number of dogs)” value ([5]; 150 mg/kg/day oral) was 2 and the “Hyperplasia Scores 2 (number of dogs)” value ([5]; 150 mg/kg/day oral) was 0. For the same compound, the “Hyperplasia Scores 3 (number of dogs)” value ([5]; 150 mg/kg/day oral) was 0, the “Incidence of Normal Lung” value ([5]; 150 mg/kg/day oral) was 7/9 and the “Average Scores” value ([5]; 150 mg/kg/day orally in capsules, hyperplasia score 0-3, control 2.11+/-0.31, P<0.001, 150 mg/kg/day) was 0.22 +/-0.19. For the same compound, the “Average Scores” value ([5]; 150 mg/kg/day orally in capsules, hyperplasia score 0-3, control 2.11+/-0.31, P<0.001, listed as Pirfenidone, 150 mg/kg/day) was 0.22+/-0.15**, the “recurrence of asbestos-induced fibrosis” value ([6]; after drug had been discontinued for two months) was “did not recur” and the “lung cell-imbedded asbestos fibers” value ([6]; electron microscope, confirmed by ashing of lung specimens and asbestos content) was “had been removed”. For the same compound, the “Lung Density, Average” value ([6]; group average, asbestos + 500 mg/kg/day in the diet two months, asbestos only 2.53+/-0.23) was 1.17+/-0.10, the “Pulmonary Fibrosis Score Electron Microscope, Average” value [6, 11] was 0.25+/-0.25 and the “Pulmonary Fibrosis Score Light Microscope, Average” value [6, 11] was 1.00+/-0.41. For the same compound, the “pulmonary fibrosis induced with crysotile asbestos” value ([6]; hamsters, oral) was “removed”, the “Pulmonary Fibrosis Score Electron Microscope” value [6, 12] was 0 (3×) and 1 and the “Pulmonary Fibrosis Score Light Microscope” value [6, 12] was 0 and 2 and 1 (2×). The “Lung Density” value ([6]; individual hamsters, asbestos by inhalation 5 days, 500 mg/kg/day orally in the diet for two months, beginning two months after exposure, 500 mg/kg/day) was 0.98 and 1.04 and 1.26 and 1.41, the LD50 ([7]; iv) was 40 mg/kg and the LD50 ([7]; po) was 500 mg/kg. For the same compound, the Clinical impressions ([8]; pulmonary fibrosis diagnosed as caused by asbestos, two subjects) was “dramatic and highly favorable” and the Clinical impressions ([8]; pulmonary fibrosis diagnosed as idiopathic, one subject followed for over two years) was “highly favorable”.
